Test results from patent US20110236501A1, “INJECTABLE DUAL DELIVERY ALLOGRAPH BONE/POLYMER COMPOSITE FOR TREATMENT OF OPEN FRACTURES” (Vanderbilt University, priority 2007, published 2011).
≈ marks a conversion by molar mass, not a printed value. Where two headings read alike, the source gives them in different places.

How the values were obtained:
[1] = In vitro release of vancomycin from PUR; format: physicochemical
Method: Methods: rhBMP-2 was purchased from R&D systems. V-FB was obtained by precipitation of vancomycin solution at pH 8. […] In vitro release experiment was carried out in PBS, with medium refreshed as indicated. […] The scaffolds were then tested in critical sized rat femoral segmental defects, contaminated or non-contaminated. After 4 or 8 weeks, the defects are harvested, and both the new bone formation and infection control were examined.

S. aureus = conditions: cited from earlier work
[2] = Solubility of tobramycin in polyester polyol; format: physicochemical
Method: Tobramycin was added as a powder to the hardener prior to reaction with the triisocyanate resin in order to minimize its reactivity with the reactive two-component polyurethane. Tobramycin's five primary amino groups otherwise cause it to react rapidly with isocyanates when in solution. Tobramycin is insoluble in polyester polyol, the primary component in the hardener; consequently the tobramycin remains in the solid phase during the chemical reaction. A loading of 8 wt-% was chosen to approximate the level of tobramycin delivered from the equivalent volume of PMMA cement beads, but higher loading can be achieved if necessary.

[3] = In vitro release of BSA-FITC / protein from PUR scaffolds; format: physicochemical; conditions: added in solution, after 21 days
Method: A scaffold of the present invention was prepared by one-shot reactive liquid molding of HDIt and hardener containing polyester triol and PEG. BSA-FITC was added to the hardener component prior to mixing with HDIt. Considering that proteins incorporate groups with active hydrogens (e.g., hydroxyl groups and amines), there is a concern that the protein will react with the polyisocyanate, resulting in damage to the protein. […] To protect the protein from reacting with the polyisocyanate, BSA-FITC was lyophilized with a varying amount of glucose excipient and then added to the hardener as a powder. […] The glucose dosage plays an important role in the release profile; the presence of 0.5% and 2% glucose increased the total amount released after 21 days and increased the initial burst release. Further increasing the glucose dosage to 5% decreased the total release.
To evaluate the effect of encapsulation protein into PLGA particles on the release kinetics from PUR scaffold, small pieces of PUR scaffold incorporated with BSA-FITC powder or PLGA particles encapsulated with BSA-FITC were incubated in a-MEM containing 1% BSA under 37° C. the medium was changed as indicated in FIG. 18. The amount of BSA-FITC was determined by emission fluorescence at 530 nm after excitation at 485 nm.

MC3T3 cells = test: In vitro cell proliferation assay of released PDGF-BB; format: cell-based; conditions: released PDGF-BB vs fresh PDGF-BB
Method: To assess the in vitro bioactivity of released PDGF-BB from the polyurethane scaffolds, releasates at day 1, 3, and 7 from PUR/PDGF-BB and PUR/G-PDGF-BB scaffolds were lyophilized and reconstituted to the same PDGF-BB concentration. After MC3T3 cells attached to the 96-well plates, the serum content in the cell culture medium was decreased from 10% to 2.5%. At the same time, the reconstituted releasates were added at dosages of 3 and 10 ng/ml. Fresh PDGF-BB (i.e., not released from the scaffolds but used directly as received from the supplier) was the positive control. Cell numbers were measured at time points of 24 and 72 h by staining the DNA and measuring fluorescence on a plate reader. […] At the 72 h time point, a dose-dependent effect was observed, although it was not evident at the 24 h time point.

[4] = In vitro release of PDGF-BB (I-125 labeling and ELISA); format: physicochemical; conditions: for total release of PDGF-BB: PUR scaffold with 2 wt % glucose
Method: To enhance the release of PDGF-BB, 2 wt % glucose was added to the scaffolds. The release profile was monitored by two methods. In the first approach, PDGF-BB was radiolabeled with iodine-125 (I-125) and a gamma reading machine was used to monitor the release kinetics. Release of PDGF-BB was also measured by ELISA assay using the liquid releasates. Both methods yield similar release profiles (FIG. 13), characterized by a burst release on the first day. The ELISA assay detected a lower total release (around 65%, compared with around 85% for I-125 labeling method), which is possibly due to denaturation of some fraction of the released protein which cannot be detected by its antibody.
To mitigate the burst release, another strategy was adopted to achieve controlled release of PDGF-BB from polyurethane scaffolds. Heparin was bound to the surface of microparticles made from amine-terminated PLGA (average size 50 μm) using standard carbodiimide techniques. PDGF-BB was then loaded onto the particle surface through heparin binding. […] To enhance the stability of the protein on the PLGA particle surface, the particles were granulated by mixing the particles with a small amount of gelatin solution followed by forcing through a 48-mesh sieve to form 110-μm granules. The granules were then added to the hardener component before reacting with isocyanate to form PUR/G-PDGF-BB polyurethane scaffolds. The PDGF-BB release from the granules is similar to that of particles when detected by I-125 labeling (FIG. 14A), but lower when measured by ELISA (FIG. 14B).

For `CN[C@H](CC(C)C)C(=O)N[C@H]1C(=O)N[C@@H](CC(N)=O)C(=O)N[C@H]2C(=O)N[C@H]3C(=O)N[C@H](C(=O)N[C@H](C(=O)O)c4cc(O)cc(O)c4-c4cc3ccc4O)[C@H](O)c3ccc(c(Cl)c3)Oc3cc2cc(c3O[C@@H]2O[C@H](CO)[C@@H](O)[C@H](O)[C@H]2O[C@H]2C[C@](C)(N)[C@H](O)[C@H](C)O2)Oc2ccc(cc2Cl)[C@H]1O` [V-FB, vancomycin free base], the “duration of vancomycin release above the MIC for S. aureus” value [1] was “up to 8 weeks” and the “duration of vancomycin release above the MIC for S. aureus” value ([1]; listed as vancomycin) was “over 8 weeks”.

In the case of `NC[C@H]1O[C@H](O[C@H]2[C@H](O)[C@@H](O[C@H]3O[C@H](CO)[C@@H](O)[C@H](N)[C@H]3O)[C@H](N)C[C@@H]2N)[C@H](N)C[C@@H]1O` [tobramycin], the minimum bactericidal concentration (S. aureus) is listed as 16 µg/mL (≈ 34.2 µM), the minimum inhibitory concentration (S. aureus) is listed as 4 to 8 µg/mL and the “solubility in polyester polyol” value [2] is listed as “insoluble”.

With “BSA-FITC: Bone serum albumin-fluorescein isothiocyanate” the “release of BSA-FITC” value [3] was < 20%.

For “PDGF-BB: Platelet-derived growth factor-BB”, the “decreased activity compared with the positive control” value (MC3T3 cells) was 20%, the protein release ([4]; PDGF-BB added to PUR as a powder without the glucose excipient) was “negligible protein release” and the “total release of PDGF-BB” value ([4]; ELISA) was “around 65%”. For the same compound, the “total release of PDGF-BB” value ([4]; I-125 labeling) was “around 85%”.
